According to patent publication US11180462B2, “Microbiocidal oxadiazole derivatives” (SYNGENTA PARTICIPATIONS AG, priority 2015, dated 2021):

Legend:
[1] = test system: Puccinia recondita f. Sp. Tritici; assay: Fungicidal activity against Puccinia recondita f. sp. tritici / wheat / leaf disc curative (brown rust); type: in vivo; settings: foliar, 24 h, 200 ppm in the applied formulation, wheat leaf segments, curative (applied 1 day after inoculation), compared to untreated control leaf disks, read-out: disease control
In short: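 Inoculate cv. Kanzler segments on agar; hold dark, 19° C, 75% RH. Spray diluted formulated compound at day 1. Incubate 12 h light/12 h dark, same temperature and humidity; score % control vs untreated 6–8 days later.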

[2] = test system: Phakopsora Pachyrhizi; assay: Fungicidal activity against Phakopsora pachyrhizi / soybean / leaf disc preventative (Asian soybean rust); type: in vivo; settings: foliar, 200 ppm in the applied formulation, soybean leaf disks, compared to untreated control leaf disks, read-out: disease control
In short: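 Scored 12 to 14 days post-application as percent control relative to untreated check discs, rust spores were sprayed under the disc one day after compound treatment. Incubation: 20°C, 75% rh, first 24–36 h in darkness, then 12 h daily light; discs kept on water agar.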

[3] = test system: Puccinia recondita f. Sp. Tritici; assay: Fungicidal activity against Puccinia recondita f. sp. tritici / wheat / leaf disc preventative (brown rust); type: in vivo; settings: foliar, 200 ppm in the applied formulation, wheat leaf segments, preventative, compared to untreated control leaf disks, read-out: disease control
In short: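 200 ppm spray on wheat cv. Kanzler leaf segments; spore inoculation +1 day; 19° C., 75% rh, 12 h/12 h light cycle; single rating of % control vs untreated at 7 to 9 days.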

[4] = test system: Glomerella lagenarium (Colletotrichum lagenarium); assay: Fungicidal activity against Glomerella lagenarium (Colletotrichum lagenarium) liquid culture / cucumber / preventative (anthracnose); type: cell-based; settings: Colletotrichum orbiculare; 20 ppm in the applied formulation; liquid culture (PDB), growth inhibition measured photometrically after 3 to 4 days; compared to untreated control; read-out: disease control
In short: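 Percent activity against the untreated check was derived from photometric growth measurements made 2 to 7 days after conidia in potato dextrose broth were combined with compound at 20 ppm. Cultures were kept dark at 24 °C and 96% humidity.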

O=C(C1CC1)N(Cc1ccc(-c2noc(C(F)(F)F)n2)cc1)C1CC1 [Compound 1.149, N-cyclopropyl-N-[[4-[5-(trifluoromethyl)-1,2,4-oxadiazol-3-yl]phenyl]methyl]-cyclopropane-carboxamide]
≥ 80%: pest or weed control at 200 ppm [1] | pest or weed control at 200 ppm [2] | pest or weed control at 200 ppm [3] | inhibition of growth at 20 ppm [4]

O=C(c1ccccc1)N(Cc1ccc(-c2noc(C(F)(F)F)n2)cc1)C1CC1 [Compound 1.150, N-cyclopropyl-N-[[4-[5-(trifluoromethyl)-1,2,4-oxadiazol-3-yl]phenyl]methyl]-benzamide]
≥ 80%: pest or weed control at 200 ppm [1] | pest or weed control at 200 ppm [2] | pest or weed control at 200 ppm [3] | inhibition of growth at 20 ppm [4]

C#CCN(Cc1ccc(-c2noc(C(F)(F)F)n2)cc1)C(=O)C1(C(F)(F)F)CC1 [Compound 1.151, N-prop-2-ynyl-1-(trifluoromethyl)-N-[[4-[5-(trifIuoromethyl)-1,2,4-oxadiazol-3-yl]phenyl]methyl]-cyclopropane-carboxamide]
≥ 80%: pest or weed control at 200 ppm [1] | pest or weed control at 200 ppm [2] | pest or weed control at 200 ppm [3] | inhibition of growth at 20 ppm [4]

C#CCCC(=O)N(CC#C)Cc1ccc(-c2noc(C(F)(F)F)n2)cc1 [Compound 1.154, N-prop-2-ynyl-N-[[4-[5-(trifluoromethyl)-1,2.4-oxadiazol-3-yl]phenyl]methyl]-pent-4-ynamide]
≥ 80%: pest or weed control at 200 ppm [1] | pest or weed control at 200 ppm [2] | pest or weed control at 200 ppm [3] | inhibition of growth at 20 ppm [4]

C#CCN(Cc1ccc(-c2noc(C(F)(F)F)n2)cc1)C(=O)C(C)C [Compound 1.155, 2-methyl-N-prop-2-ynyl-N-[[4-[5-(trifluoromethyl)-1,2,4-oxadiazol-3-yl]phenyl]methyl]-propanamide]
≥ 80%: pest or weed control at 200 ppm [1] | pest or weed control at 200 ppm [2] | pest or weed control at 200 ppm [3] | inhibition of growth at 20 ppm [4]

C#CCN(Cc1ccc(-c2noc(C(F)(F)F)n2)cc1)C(=O)C1CC1(F)F (stereo not shown) [Compound 1.157, 2,2-difluoro-N-prop-2-ynyl-N-[[4-[5-(trifluoromethyl)-1,2,4-oxadiazol-3-yl]phenyl]methyl]-cyclopropane-carboxamide]
≥ 80%: pest or weed control at 200 ppm [1] | pest or weed control at 200 ppm [2] | pest or weed control at 200 ppm [3] | inhibition of growth at 20 ppm [4]

C#CCN(Cc1ccc(-c2noc(C(F)(F)F)n2)cc1)C(=O)CCC=C [Compound 1.159, N-prop-2-ynyl-N-[[4-[5-(trifluoromethyl)-1,2,4-oxadiazol-3-yl]phenyl]methyl]-pent-4-enamide]
≥ 80%: pest or weed control at 200 ppm [1] | pest or weed control at 200 ppm [2] | pest or weed control at 200 ppm [3] | inhibition of growth at 20 ppm [4]

C#CCN(Cc1ccc(-c2noc(C(F)(F)F)n2)cc1)C(=O)C(C)CC(C)=O (stereo not shown) [Compound 1.164, 2-methyl-4-oxo-N-prop-2-ynyl-N-[[4-[5-(trifluoromethyl)-1,2,4-oxadiazol-3-yl]phenyl]methyl]-pentanamide]
≥ 80%: pest or weed control at 200 ppm [1] | pest or weed control at 200 ppm [2] | pest or weed control at 200 ppm [3] | inhibition of growth at 20 ppm [4]

C#CCN(Cc1ccc(-c2noc(C(F)(F)F)n2)cc1)C(=O)CCC [Compound 1.165, N-prop-2-ynyl-N-[[4-[5-(trifluoromethyl)-1,2,4-oxadiazol-3-yl]phenyl]methyl]-butanamide]
≥ 80%: pest or weed control at 200 ppm [1] | pest or weed control at 200 ppm [2] | pest or weed control at 200 ppm [3] | inhibition of growth at 20 ppm [4]

C#CCN(Cc1ccc(-c2noc(C(F)(F)F)n2)cc1)C(=O)CC1CC1 [Compound 1.167, 2-cyclopropyl-N-prop-2-ynyl-N-[[4-[5-(trifluoromethyl)-1,2,4-oxadiazol-3-yl]phenyl]methyl]-acetamide]
≥ 80%: pest or weed control at 200 ppm [1] | pest or weed control at 200 ppm [2] | pest or weed control at 200 ppm [3] | inhibition of growth at 20 ppm [4]

C#CCN(Cc1ccc(-c2noc(C(F)(F)F)n2)cc1)C(=O)C1CCCC1 [Compound 1.168, N-prop-2-ynyl-N-[[4-[5-(trifluoromethyl)-1,2,4-oxadiazol-3-yl]phenyl]methyl]-cyclopentane-carboxamide]
≥ 80%: pest or weed control at 200 ppm [1] | pest or weed control at 200 ppm [2] | pest or weed control at 200 ppm [3] | inhibition of growth at 20 ppm [4]

C#CCN(Cc1ccc(-c2noc(C(F)(F)F)n2)cc1)C(=O)CCC(F)(F)F [Compound 1.169, 4,4,4-trifluoro-N-prop-2-ynyl-N-[[4-[5-(trifluoromethyl)-1,2,4-oxadiazol-3-yl]phenyl]methyl]-butanamide]
≥ 80%: pest or weed control at 200 ppm [1] | pest or weed control at 200 ppm [2] | pest or weed control at 200 ppm [3] | inhibition of growth at 20 ppm [4]

C#CCN(Cc1ccc(-c2noc(C(F)(F)F)n2)cc1)C(=O)Cc1cccnc1 [Compound 1.170, N-prop-2-ynyl-2-(3-pyridyl)-N-[[4-[5-(trifluoromethyl)-1,2,4-oxadiazol-3-yl]phenyl]methyl]-acetamide]
≥ 80%: pest or weed control at 200 ppm [1] | pest or weed control at 200 ppm [2] | pest or weed control at 200 ppm [3] | inhibition of growth at 20 ppm [4]

C#CCN(Cc1ccc(-c2noc(C(F)(F)F)n2)cc1)C(=O)C1CCOC1 (stereo not shown) [Compound 1.171, N-prop-2-ynyl-N-[[4-[5-(trifluoromethyl)-1,2,4-oxadiazol-3-yl]phenyl]methyl]-tetrahydrofuran-3-carboxamide]
≥ 80%: pest or weed control at 200 ppm [1] | pest or weed control at 200 ppm [2] | pest or weed control at 200 ppm [3] | inhibition of growth at 20 ppm [4]

C#CCN(Cc1ccc(-c2noc(C(F)(F)F)n2)cc1)C(=O)CCOC [Compound 1.173, 3-methoxy-N-prop-2-ynyl-N-[[4-[5-(trifluoromethyl)-1,2,4-oxadiazol-3-yl]phenyl]methyl]-propanamide]
≥ 80%: pest or weed control at 200 ppm [1] | pest or weed control at 200 ppm [2] | pest or weed control at 200 ppm [3] | inhibition of growth at 20 ppm [4]

C#CCN(Cc1ccc(-c2noc(C(F)(F)F)n2)cc1)C(=O)CC(C)C [Compound 1.175, 3-methyl-N-prop-2-ynyl-N-[[4-[5-(trifluoromethyl)-1,2,4-oxadiazol-3-yl]phenyl]methyl]-butanamide]
≥ 80%: pest or weed control at 200 ppm [1] | pest or weed control at 200 ppm [2] | pest or weed control at 200 ppm [3] | inhibition of growth at 20 ppm [4]

C#CCN(Cc1ccc(-c2noc(C(F)(F)F)n2)cc1)C(=O)C(C)(C)CCl [Compound 1.176, 3-chloro-2,2-dimethyl-N-prop-2-ynyl-N-[[4-[5-(trifluoromethyl)-1,2,4-oxadiazol-3-yl]phenyl]methyl]-propanamide]
≥ 80%: pest or weed control at 200 ppm [1] | pest or weed control at 200 ppm [2] | pest or weed control at 200 ppm [3] | inhibition of growth at 20 ppm [4]

C#CCN(Cc1ccc(-c2noc(C(F)(F)F)n2)cc1)C(=O)CC(F)(F)F [Compound 1.177, 3,3,3-trifluoro-N-prop-2-ynyl-N-[[4-[5-(trifluoromethyl)-1,2,4-oxadiazol-3-yl]phenyl]methyl]-propanamide]
≥ 80%: pest or weed control at 200 ppm [1] | pest or weed control at 200 ppm [2] | pest or weed control at 200 ppm [3] | inhibition of growth at 20 ppm [4]

C#CCN(Cc1ccc(-c2noc(C(F)(F)F)n2)cc1)C(=O)C1CCC1 [Compound 1.178, N-prop-2-ynyl-N-[[4-[5-(trifluoromethyl)-1,2,4-oxadiazol-3-yl]phenyl]methyl]-cyclobutane-carboxamide]
≥ 80%: pest or weed control at 200 ppm [1] | pest or weed control at 200 ppm [2] | pest or weed control at 200 ppm [3] | inhibition of growth at 20 ppm [4]

C#CCN(Cc1ccc(-c2noc(C(F)(F)F)n2)cc1)C(=O)CC=CC [Compound 1.180, N-prop-2-ynyl-N-[[4-[5-(trifluoromethyl)-1,2.4-oxadiazol-3-yl]phenyl]methyl]-pent-3-enamide]
≥ 80%: pest or weed control at 200 ppm [1] | pest or weed control at 200 ppm [2] | pest or weed control at 200 ppm [3] | inhibition of growth at 20 ppm [4]

C#CCN(Cc1ccc(-c2noc(C(F)(F)F)n2)cc1)C(=O)C1CC1C (stereo not shown) [Compound 1.181, 2-methyl-N-prop-2-ynyl-N-[[4-[5-(trifluoromethyl)-1,2,4-oxadiazol-3-yl]phenyl]methyl]-cyclopropane-carboxamide]
≥ 80%: pest or weed control at 200 ppm [1] | pest or weed control at 200 ppm [2] | pest or weed control at 200 ppm [3] | inhibition of growth at 20 ppm [4]

C#CCN(Cc1ccc(-c2noc(C(F)(F)F)n2)cc1)C(=O)C(C)(C)C [Compound 1.182, 2,2-dimethyl-N-prop-2-ynyl-N-[[4-[5-(trifluoromethyl)-1,2,4-oxadiazol-3-yl]phenyl]methyl]-propanamide]
≥ 80%: pest or weed control at 200 ppm [1] | pest or weed control at 200 ppm [2] | pest or weed control at 200 ppm [3] | inhibition of growth at 20 ppm [4]
